Results: patent US20080070961A1, “Polymorphs of N-(2-acetyl-4,6-dimethylphenyl)-3-{[(3,4 dimethyl-5-isoxazolyl)-amino]sulfonyl}-2-thiophene-carboxamide” (priority 2006, published 2008)
Converted amounts (≈) assume the structure as drawn. “Also recorded” adds a separate entry of the source.

How the values were obtained:
[1] = Interconversion experiments (slurries of two forms, XRPD); format: physicochemical
Experimental: Interconversion experiments were carried out by making slurries containing two forms of N-(2-acetyl-4,6-dimethylphenyl)-3 -{[(3,4-dimethyl-5-isoxazolyl)amino]-sulfonyl}-2-thiophenecaboxamide in saturated toluene, methanol/water, or alcohol solutions. The slurries were agitated for various time periods at either ambient temperature or at 45° C. The insoluble solids were recovered by filtration and analyzed using XRPD.

[2] = Grinding experiments (mortar and pestle, XRPD); format: physicochemical
Experimental: N-(2-acetyl-4,6-dimethylphenyl)-3-{[(3 ,4-dimethyl-5-isoxazolyl)amino]-sulfonyl}-2-thiophenecaboxamide material was ground by hand with a mortar and pestle for 30 sec, 1, 2, and 5 minutes. The samples were then analyzed by XRPD.

[3] = Stress studies (humidity / temperature, XRPD); format: physicochemical
Experimental: Samples of N-(2-acetyl-4,6-dimethylphenyl)-3-{[(3,4-dimethyl-5-isoxazolyl)amino]-sulfonyl}-2-thiophenecaboxamide were stressed at 22, 58, 75, and 93% RH under ambient temperature for 3 days. One sample was also placed in a 40 ° C. oven for 11 days. Samples of amorphous material were also placed in a 40 ° C. oven for 36 days or in a 70 ° C. oven for 4 days. The solids were then analyzed by XRPD.

[4] = Moisture sorption/desorption; format: physicochemical; settings: for XRPD Results after the moisture sorption/desorption experiment: sorption 5 to 95% RH, desorption 95 to 5% RH
Experimental: The moisture sorption/desorption data was collected on a VT SGA-100 moisture balance system. For sorption isotherms, a sorption range of 5 to 95% relative humidity (RH) and a desorption range of 95 to 5% RH in 10% RH increments were used for analysis. The sample was not dried prior to analysis. Equilibrium criteria used for analysis was less than 0.0100% weight change in 5 minutes with a maximum equilibration time of 3 hours if the weight criterion was not met. Data was not corrected for the initial moisture content of the samples.

[5] = physchem; settings: organic solvent or mixture, thermodynamic from solid, AVERAGE SOLUBILITY
Experimental: (§1) Saturated solutions of this compound in ethanol were prepared and each solution was heated to either 25, 27, 35, 40 or 50° C.' and stirred for 30 minutes. The samples were filtered into a receiving flask and were heated at the same temperatures and stirred for another 30 minutes. Samples were removed from these flasks and were filtered into a tared vial. The remaining solution was heated and stirred for another 30 minutes. Samples were again removed from these flasks and were filtered into another tared vial. The solvents in the tared vials were removed using a rotary evaporator and the weights of the solids in the tared vials were recorded and were used to calculate solubility.
(§2) The solubilitites reported were determined gravimetrically, therefore, fluctuations in the data are possible.

[6] = Approximate solubilities of Form A in various solvents at ambient temperature; format: physicochemical; settings: for solubility: thermodynamic from solid, approximate
Experimental: The approximate solubilities were estimated from experiments based on the total solvent used to give a solution. The actual solubilities may be greater than those calculated because of the use of too-large solvent aliquots or a slow rate of dissolution. […] If the solid dissolved before the whole aliquot of solvent was added the solubility is listed as “greater than”.

[7] = Solubility of Forms A, C and E in ethanol (gravimetric); settings: for stability of the forms (order, based on the solubility data): ethanol solubility data; for AVERAGE SOLUBILITY / solubility at 30 min / solubility at 60 min / XRPD of remaining solid after the solubility experiment (form conversion) / relative solubility of the forms: ethanol; for solubility at 30 min / solubility at 60 min: organic solvent or mixture, thermodynamic from solid, AVERAGE SOLUBILITY; for XRPD of remaining solid after the solubility experiment (form conversion) / relative solubility of the forms: various temperatures
Experimental: as §1, §2

Q: For CC(=O)c1cc(C)cc(C)c1NC(=O)c1sccc1S(=O)(=O)Nc1onc(C)c1C [A vs. C], which “XRPD Results after slurry” value ([1]; 1:1 methanol:water, 12 days) is on record?
A: A + C, SS

Q: What about the “XRPD Results after slurry” value ([1]; toluene RT, 12 days) of the same molecule?
A: A + C

Q: What about the “XRPD Results after slurry” value ([1]; toluene, 45° C., 5 days) of the same molecule?
A: A + C

Q: For CC(=O)c1cc(C)cc(C)c1NC(=O)c1sccc1S(=O)(=O)Nc1onc(C)c1C [A(PO)], which “XRPD Pattern after grinding” value ([2]; grind time 2 min) is on record?
A: C + E

Q: Which “XRPD Results after slurry” value ([1]; toluene, 45° C., 5 days) does the source give for CC(=O)c1cc(C)cc(C)c1NC(=O)c1sccc1S(=O)(=O)Nc1onc(C)c1C [C vs. E] here?
A: A + C

Q: Which “XRPD Pattern after stress” value ([3]; 40° C., 36 d) does the source give for CC(=O)c1cc(C)cc(C)c1NC(=O)c1sccc1S(=O)(=O)Nc1onc(C)c1C [amorphous, N-(2-acetyl-4,6-dimethylphenyl)-3-{[(3,4dimethyl-5-isoxazolyl)-amino]sulfonyl}-2-thiophenecarboxamide] here?
A: amorphous

Q: And the “XRPD Pattern after stress” value ([3]; 70° C., 4 d)?
A: a mixture of Forms E and C

Q: What about the “XRPD Pattern after stress” value ([3]; ambient, 92 d (approx. 3 months)) of the same molecule?
A: Forms C and E

Q: And the “Moisture Balance Results: weight loss at 5% RH” value [4]?
A: <0.1% weight loss at 5% RH,

Q: What about the “XRPD Results after the moisture sorption/desorption experiment” value [4] of the same molecule?
A: remained amorphous; also recorded: does not recrystallize

Q: With CC(=O)c1cc(C)cc(C)c1NC(=O)c1sccc1S(=O)(=O)Nc1onc(C)c1C [Form E, N-(2-acetyl-4,6-dimethylphenyl)-3-{[(3,4dimethyl-5-isoxazolyl)-amino]sulfonyl}-2-thiophenecarboxamide] as the molecule, how does the solubility at 30 min ([5]; 27 °C) read?
A: 12.7 mg/mL (≈ 28.4 mM)

Q: And the solubility at 60 min ([5]; 27 °C)?
A: 11 mg/mL (≈ 24.6 mM)

Q: And the solubility at 30 min ([5]; 35 °C)?
A: 17.7 mg/mL (≈ 39.5 mM)

Q: What about the solubility at 60 min ([5]; 35 °C) of the same molecule?
A: 18.3 mg/mL (≈ 40.9 mM)

Q: And the solubility at 30 min ([5]; 50 °C)?
A: 40.8 mg/mL (≈ 91.2 mM)

Q: What about the solubility at 60 min ([5]; 50 °C) of the same molecule?
A: 39.7 mg/mL (≈ 88.7 mM)

Q: And the “hygroscopicity (based on moisture sorption/desorption data)” value [4]?
A: non-hygroscopic

Q: And the “Moisture Balance Results: weight loss at 5% RH” value [4]?
A: <0.1% weight loss at 5% RH,

Q: What about the “Moisture Balance Results: total weight gain at 95% RH” value [4] of the same molecule?
A: 0.15% total weight gain at 95% RH

Q: And the “XRPD Results after the moisture sorption/desorption experiment” value [4]?
A: remained Form E

Q: What about the “weight loss or gain during the moisture sorption/desorption experiment” value ([4]; whole experiment) of the same molecule?
A: < 0.2%

Q: Which “XRPD Results after slurry” value ([1]; ethanol, 20 days) does the source give for CC(=O)c1cc(C)cc(C)c1NC(=O)c1sccc1S(=O)(=O)Nc1onc(C)c1C [A vs. E] here?
A: A + E(min)

Q: What about the “XRPD Results after slurry” value ([1]; ethanol, 27 days) of the same molecule?
A: A + pk 4°

Q: What about the “XRPD Results after slurry” value ([1]; toluene RT, 20 days) of the same molecule?
A: A, SS

Q: And the “XRPD Results after slurry” value ([1]; toluene, 45° C., 5 days)?
A: A(PO)

Q: Which results are given for CC(=O)c1cc(C)cc(C)c1NC(=O)c1sccc1S(=O)(=O)Nc1onc(C)c1C [Form A, N-(2-acetyl-4,6-dimethylphenyl)-3-{[(3,4dimethyl-5-isoxazolyl)-amino]sulfonyl}-2-thiophenecarboxamide]?
A: XRPD Pattern after grinding ([2]; grind time 1 min): A, SS; crystallinity upon grinding ([2]; ground for up to 5 minutes, mortar and pestle): loses some crystallinity; form after stress, all conditions of Table 10 ([3]; various conditions (22-93% RH 3 d; 40° C. 11 d)): remained Form A; hygroscopicity (based on moisture sorption/desorption data) [4]: non-hygroscopic; Moisture Balance Results: weight loss at 5% RH [4]: <0.1% weight loss at 5% RH,; Moisture Balance Results: total weight gain at 95% RH [4]: <0.1% total weight gain at 95% RH; XRPD Results after the moisture sorption/desorption experiment [4]: remained Form A; solubility ([6]; N,N-dimethylformamide, organic solvent or mixture): 250 mg/mL (≈ 559 mM); solubility ([6]; acetone, organic solvent or mixture): 87 mg/mL (≈ 194 mM); solubility ([6]; acetonitrile, organic solvent or mixture): 72 mg/mL (≈ 161 mM); solubility ([6]; dichloromethane, organic solvent or mixture): 135 mg/mL (≈ 302 mM); solubility ([6]; diethyl ether, organic solvent or mixture): < 9 mg/mL; solubility (in words) ([6]; diethyl other, hexanes, propanol and water): sparingly soluble; solubility ([6]; dimethyl sulfoxide, organic solvent or mixture): 144 mg/mL (≈ 322 mM); solubility ([6]; ethanol, organic solvent or mixture): 9 mg/mL (≈ 20.1 mM); solubility ([6]; ethyl acetate, organic solvent or mixture): 21 mg/mL (≈ 46.9 mM); solubility ([6]; hexanes, organic solvent or mixture): < 9 mg/mL; solubility ([6]; isopropanol, organic solvent or mixture): < 10 mg/mL; solubility ([6]; methanol, organic solvent or mixture): 21 mg/mL (≈ 46.9 mM); solubility ([6]; propanol, organic solvent or mixture): < 9 mg/mL; solubility ([6]; toluene, organic solvent or mixture): 19 mg/mL (≈ 42.5 mM); solubility ([6]; water): < 8 mg/mL; stability of the forms (order, based on the solubility data) [7]: Form A >Form C >Form E; AVERAGE SOLUBILITY ([7]; 25 °C, 30 min): 9.5 mg/mL; AVERAGE SOLUBILITY ([7]; 25 °C, 60 min): 10.6 mg/mL; AVERAGE SOLUBILITY ([7]; 40 °C, 30 min): 17.3 mg/mL; AVERAGE SOLUBILITY ([7]; 40 °C, 60 min): 18.1 mg/mL; solubility at 30 min ([7]; 50 °C, 30 min): 40.8 mg/mL (≈ 91.2 mM); solubility at 60 min ([7]; 50 °C, 60 min): 36.7 mg/mL (≈ 82 mM); XRPD of remaining solid after the solubility experiment (form conversion) [7]: conversion to another form did not occur; relative solubility of the forms [7]: less soluble form; also recorded: least soluble

Q: Which “XRPD Pattern after grinding” value ([2]; grind time 2 min) does the source give for CC(=O)c1cc(C)cc(C)c1NC(=O)c1sccc1S(=O)(=O)Nc1onc(C)c1C [Form C, N-(2-acetyl-4,6-dimethylphenyl)-3-{[(3,4dimethyl-5-isoxazolyl)-amino]sulfonyl}-2-thiophenecarboxamide] here?
A: remained Form C

Q: What about the “XRPD Results after slurry” value ([1]; ethanol, 16 days) of the same molecule?
A: remained the same form

Q: And the “hygroscopicity (based on moisture sorption/desorption data)” value [4]?
A: non-hygroscopic

Q: And the “Moisture Balance Results: weight loss at 5% RH” value [4]?
A: <0.1% weight loss at 5% RH,

Q: And the “Moisture Balance Results: total weight gain at 95% RH” value [4]?
A: <0.1% total weight gain at 95% RH

Q: And the “XRPD Results after the moisture sorption/desorption experiment” value [4]?
A: remained Form C

Q: And the “stability of the forms (order, based on the solubility data)” value [7]?
A: Form A >Form C >Form E

Q: What about the solubility at 30 min ([7]; 25 °C, 30 min) of the same molecule?
A: 16.1 mg/mL (≈ 36 mM)

Q: And the solubility at 60 min ([7]; 25 °C, 60 min)?
A: 13.2 mg/mL (≈ 29.5 mM)

Q: What about the solubility at 30 min ([7]; 40 °C, 30 min) of the same molecule?
A: 28.3 mg/mL (≈ 63.2 mM)

Q: What about the solubility at 60 min ([7]; 40 °C, 60 min) of the same molecule?
A: 27.4 mg/mL (≈ 61.2 mM)

Q: What about the “AVERAGE SOLUBILITY” value ([7]; 50 °C, 30 min) of the same molecule?
A: 35.6 mg/mL

Q: What about the “AVERAGE SOLUBILITY” value ([7]; 50 °C, 60 min) of the same molecule?
A: 45.1 mg/mL

Q: What about the “XRPD of remaining solid after the solubility experiment (form conversion)” value [7] of the same molecule?
A: did not change form; also recorded: did not convert

Q: And the “relative solubility of the forms” value [7]?
A: higher solubility than Form A
